In patent publication US20130217723A1, “Pharmaceutical Composition Combining Tenatoprazole and an Anti-Inflammatory Agent” (priority 2002, published 2013):
Read-outs that look alike come from different tables or passages of the source.

Columns and labels:
[1] = patients under treatment; cited from earlier work
[2] = Phase I pharmacokinetic study of oral tenatoprazole, single dose and daily dose for 7 days; type: in vivo, human (Caucasian individuals); conditions: for half-life: human, plasma, oral, depending on the dose (10-80 mg), read-out: mean elimination half-lives
Procedure: The doses tested were 10, 20, 40 and 80 mg of tenatoprazole.
In this table, the abbreviations employed have the following meanings: • Cmax maximum concentration • Tmax time required to attain maximum concentration • T1/2 elimination half-life • AUC0-t area under the curve, between time 0 and the last measurable concentration.

half-life ([2]; after a single dose) | half-life ([2]; after administration for seven days) | Cmax, AUC0-t and AUC0-inf values versus dose ([2]; single or repeated administration, AUC0-inf calculated by extrapolation) | Structure (SMILES) | percentage of minor disorders observed in patients: dyspeptic symptoms [1] | percentage of minor disorders observed in patients: gastric pain [1] | percentage of minor disorders observed in patients: nausea [1] | plasma half-life/pump regeneration time ratio ([2]; compared with other proton pump inhibitors)
 |  |  | Cc1ccc(-c2cc(C(F)(F)F)nn2-c2ccc(S(N)(=O)=O)cc2)cc1 [celecoxib] | 4.8% | 4.8% | 2.4% | 
5 to 6 h | 5 to 9.5 h | increased in a linear fashion | COc1ccc2[nH]c([S+]([O-])Cc3ncc(C)c(OC)c3C)nc2n1 (stereo not shown) [tenatoprazole, 5-methoxy-2-[[(4-methoxy-3,5-dimethyl-2-pyridyl)methyl]sulfinyl]imidazo[4,5-b]pyridine] |  |  |  | notably higher than that seen with other proton pump inhibitors
